Results taken from US20120270929A1, “MODULATION OF TTC39 EXPRESSION TO INCREASE HDL” (ISIS Pharmaceuticals, Inc., priority 2009, published 2012).
Oligonucleotides are written 5' to 3', each unit as a sugar letter and its base; * is a phosphorothioate linkage, no mark a phosphodiester; rarer units and linkages stand in square brackets, end groups in braces. Plain capitals give the bases only. e = 2'-O-(2-methoxyethyl) (MOE); [5mC] = 5-methylcytosine; d = 2'-deoxy (DNA)

Key:
Format in all cases: cell-based
murine TTC39C mRNA [1] = test: Antisense inhibition of mouse TTC39C in mouse primary hepatocytes, single dose; conditions: 8,000 nM antisense oligonucleotide, electroporation, approximately 24 hours, TTC39C mRNA by real-time PCR (RTS3266), relative to untreated control cells
Procedure: Antisense oligonucleotides were designed targeting a TTC39C nucleic acid and were tested for their effects on TTC39C mRNA in vitro. Cultured mouse primary hepatocytes at a density of 30,000 cells per well were transfected by electroporation with 8,000 nM antisense oligonucleotide. After a treatment period of approximately 24 hours, RNA was isolated from the cells and TTC39C mRNA levels were measured by quantitative real-time PCR. Mouse primer probe set RTS3266 (forward sequence […], designated herein as SEQ ID NO: 140; reverse sequence […], designated herein as SEQ ID NO: 141; probe sequence […], designated herein as SEQ ID NO: 142). TTC39C mRNA levels were adjusted according to total RNA content, as measured by RIBOGREEN®. Results are presented as percent inhibition of TTC39C, relative to untreated control cells.
The chimeric antisense oligonucleotides targeting TTC39C were designed as 5-10-5 MOE gapmers. The gapmers are 20 nucleotides in length, wherein the central gap segment is comprised of ten 2′-deoxynucleotides and is flanked on both sides (in the 5′ and 3′ directions) by wings comprising five nucleotides each. Each nucleotide in the 5′ wing segment and each nucleotide in the 3′ wing segment has a 2′-MOE modification. The internucleoside linkages throughout each gapmer are phosphorothioate (P═S) linkages. All cytosine residues throughout each gapmer are 5-methylcytosines. “Mouse Target start site” indicates the 5′-most nucleotide to which the gapmer is targeted in the mouse gene sequence.

murine TTC39C mRNA [2] = test: Dose-dependent antisense inhibition of murine TTC39C in mouse primary hepatocytes; conditions: electroporation, ~16 h; for IC50: mouse primary hepatocytes
Outline: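 Mouse primary hepatocytes (30,000/well) electroporated with antisense oligonucleotide at 500, 1,000, 2,000, 4,000 or 8,000 nM and harvested after about 16 h. TTC39C mRNA quantified by RT-qPCR (primer probe set RTS3266), normalised to RIBOGREEN total RNA; percent inhibition versus untreated cells.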

murine TTC39B mRNA [3] = test: Antisense inhibition of murine TTC39B in mouse primary hepatocytes, single dose; conditions: 100 nM, cytofectin, ~24 h, vs untreated control; gapmers targeted to SEQ ID NO: 10-14
Outline: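 Mouse primary hepatocytes transfected by cytofectin with 100 nM 5-10-5 MOE gapmer (20-mer, phosphorothioate, 5-methylcytosine) for ~24 h. TTC39B mRNA quantified by real-time qPCR, normalized to RIBOGREEN total RNA. Values given as percent inhibition versus untreated cells.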

murine TTC39B mRNA [4] = test: Dose-dependent antisense inhibition of murine TTC39B in mouse primary hepatocytes (Example 2); conditions: cytofectin, ~16 h
Procedure: Cells were plated at a density of 10,000 cells per well and transfected using cytofectin reagent with 25 nM, 50 nM, 100 nM, and 200 nM concentrations of antisense oligonucleotide, as specified in Table 3. After a treatment period of approximately 16 hours, RNA was isolated from the cells and TTC39B mRNA levels were measured by quantitative real-time PCR. Murine primer probe set mTtc39b_LTS00287 (forward sequence: […], incorporated herein as SEQ ID NO: 94; reverse sequence: […], incorporated herein as SEQ ID NO: 95; probe sequence: […], incorporated herein as SEQ ID NO: 96) was used to measure mRNA levels. TTC39B mRNA levels were adjusted according to total RNA content, as measured by RIBOGREEN®. Results are presented as percent inhibition of TTC39B, relative to untreated control cells.

murine TTC39B mRNA [5] = test: Dose-dependent antisense inhibition of murine TTC39B in mouse primary hepatocytes (Example 3); conditions: cytofectin, ~16 h
Procedure: Cells were plated at a density of 10,000 cells per well and transfected using cytofectin reagent with 6.25 nM, 12.5 nM, 25 nM, 50 nM, 100 nM, and 200 nM concentrations of antisense oligonucleotide, as specified in Table 4. After a treatment period of approximately 16 hours, RNA was isolated from the cells and TTC39B mRNA levels were measured by quantitative real-time PCR. Murine primer probe set mTtc39b_LTS00287 was used to measure mRNA levels. TTC39B mRNA levels were adjusted according to total RNA content, as measured by RIBOGREEN®. Results are presented as percent inhibition of TTC39B, relative to untreated control cells.

Substance	% inhibition (murine TTC39C mRNA [1]) [%]	percent inhibition of TTC39C mRNA (murine TTC39C mRNA [2]; 500.0 nM) [%]	percent inhibition of TTC39C mRNA (murine TTC39C mRNA [2]; 1000.0 nM) [%]	percent inhibition of TTC39C mRNA (murine TTC39C mRNA [2]; 2000.0 nM) [%]	percent inhibition of TTC39C mRNA (murine TTC39C mRNA [2]; 4000.0 nM) [%]	percent inhibition of TTC39C mRNA (murine TTC39C mRNA [2]; 8000.0 nM) [%]	IC50 (murine TTC39C mRNA [2]) [nM]	% inhibition of murine TTC39B mRNA (murine TTC39B mRNA [3]) [%]	percent inhibition of TTC39B mRNA (murine TTC39B mRNA [4]; 25 nM) [%]	percent inhibition of TTC39B mRNA (murine TTC39B mRNA [4]; 50 nM) [%]	percent inhibition of TTC39B mRNA (murine TTC39B mRNA [4]; 100 nM) [%]	percent inhibition of TTC39B mRNA (murine TTC39B mRNA [4]; 200 nM) [%]	percent inhibition of TTC39B mRNA (murine TTC39B mRNA [5]; 6.25 nM) [%]	percent inhibition of TTC39B mRNA (murine TTC39B mRNA [5]; 12.5 nM) [%]	percent inhibition of TTC39B mRNA (murine TTC39B mRNA [5]; 25.0 nM) [%]	percent inhibition of TTC39B mRNA (murine TTC39B mRNA [5]; 50.0 nM) [%]	percent inhibition of TTC39B mRNA (murine TTC39B mRNA [5]; 100.0 nM) [%]	percent inhibition of TTC39B mRNA (murine TTC39B mRNA [5]; 200.0 nM) [%]
ISIS 474604: 5-10-5 MOE gapmer antisense oligonucleotide targeting murine TTC39C (antisense eT*eG*eT*e[5mC]*eA*d[5mC]*dT*dG*d[5mC]*d[5mC]*dG*dT*d[5mC]*d[5mC]*dA*eA*eA*eG*e[5mC]*eA)	97	43	70	84	88	96	500	–	–	–	–	–	–	–	–	–	–	–
ISIS 474607: 5-10-5 MOE gapmer antisense oligonucleotide targeting murine TTC39C (antisense eT*e[5mC]*eA*eA*eT*d[5mC]*dA*dT*dG*d[5mC]*dT*dG*d[5mC]*dA*d[5mC]*e[5mC]*eA*eG*e[5mC]*e[5mC])	98	40	65	85	92	94	500	–	–	–	–	–	–	–	–	–	–	–
ISIS 474609: 5-10-5 MOE gapmer antisense oligonucleotide targeting murine TTC39C (antisense e[5mC]*eG*eT*eA*eG*dT*dA*dG*d[5mC]*dA*d[5mC]*dT*dG*dG*dG*eA*e[5mC]*e[5mC]*eA*e[5mC])	95	48	56	71	90	97	600	–	–	–	–	–	–	–	–	–	–	–
ISIS 474610: 5-10-5 MOE gapmer antisense oligonucleotide targeting murine TTC39C (antisense eT*eT*eA*eA*eG*dA*dA*d[5mC]*dA*dA*dG*dT*dT*dG*dT*eG*e[5mC]*e[5mC]*e[5mC]*e[5mC])	90	10	28	38	65	71	2800	–	–	–	–	–	–	–	–	–	–	–
ISIS 474613: 5-10-5 MOE gapmer antisense oligonucleotide targeting murine TTC39C (antisense eT*eG*e[5mC]*eT*eT*dT*dA*dA*dT*d[5mC]*d[5mC]*dA*dA*d[5mC]*dG*eA*e[5mC]*eA*eG*eA)	90	30	33	43	65	74	2100	–	–	–	–	–	–	–	–	–	–	–
ISIS 474615: 5-10-5 MOE gapmer antisense oligonucleotide targeting murine TTC39C (antisense eG*eT*eA*e[5mC]*eG*dA*dG*dT*dT*dA*d[5mC]*dT*d[5mC]*dT*dG*e[5mC]*e[5mC]*eG*eA*e[5mC])	96	33	43	82	92	98	900	–	–	–	–	–	–	–	–	–	–	–
ISIS 474617: 5-10-5 MOE gapmer antisense oligonucleotide targeting murine TTC39C (antisense eA*eG*eT*eT*e[5mC]*d[5mC]*d[5mC]*dT*dT*dA*dG*dG*dG*dA*dG*eG*e[5mC]*e[5mC]*eA*eG)	94	43	45	80	86	94	800	–	–	–	–	–	–	–	–	–	–	–
ISIS 474629: 5-10-5 MOE gapmer antisense oligonucleotide targeting murine TTC39C (antisense eG*eA*eT*e[5mC]*eA*d[5mC]*dT*dG*d[5mC]*d[5mC]*dG*dT*d[5mC]*d[5mC]*dA*eA*eA*eG*e[5mC]*eA)	93	16	28	42	48	66	3600	–	–	–	–	–	–	–	–	–	–	–
ISIS 474662: 5-10-5 MOE gapmer antisense oligonucleotide targeting murine TTC39C (antisense eG*eG*eA*eT*eT*dT*d[5mC]*d[5mC]*dG*dG*dG*d[5mC]*dA*dT*d[5mC]*eA*eA*e[5mC]*e[5mC]*eT)	95	28	35	65	88	94	1300	–	–	–	–	–	–	–	–	–	–	–
ISIS 474666: 5-10-5 MOE gapmer antisense oligonucleotide targeting murine TTC39C (antisense e[5mC]*eA*eA*eT*e[5mC]*dA*dT*dG*d[5mC]*dT*dG*d[5mC]*dA*d[5mC]*d[5mC]*eA*eG*e[5mC]*e[5mC]*eT)	95	35	54	79	92	95	800	–	–	–	–	–	–	–	–	–	–	–
TGTCAGTGACAGTGGCAGCT (antisense eT*eG*eT*e[5mC]*eA*dG*dT*dG*dA*d[5mC]*dA*dG*dT*dG*dG*e[5mC]*eA*eG*e[5mC]*eT) [ISIS 447159]	–	–	–	–	–	–	–	71	41	60	76	85	12	19	37	62	78	86
